Reference: US20120029187A1, “HALOALKYLSULFONANILIDE DERIVATIVE” (Nissan Chemical Industries, Ltd., priority 2009, published 2012)

Legend:
Type in all cases: in vivo
ducksalad [1] = assay: Test Example 1: herbicidal effects in preemergence treatment under submerged conditions; settings: dose 2.52 g/a
How it was run: (§1)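 Scoring 0 (<5% mortality) to 5 (≥90%) was done three weeks after preemergence application to the water surface of submerged (4 cm) alluvial soil, doses given as g per are. Weeds were seeded and 2.5-leaf rice transplanted on the treatment day; greenhouse at 25–30 °C.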

bulrush [2] = assay: as above; settings: dose 2.52 g/a
How it was run: as §1

barnyardgrass [3] = assay: as above; settings: dose 2.52 g/a
How it was run: as §1

transplanted rice = assay: Test Example 1: preemergence treatment under submerged conditions, effect on crop; settings: dose 2.52 g/a
How it was run: as §1

ducksalad [4] = assay: Test Example 2: herbicidal effects during the vegetation period under submerged conditions; settings: treatment during the vegetation period under submerged conditions; dose 2.52 g/a
How it was run: (§2)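 Barnyardgrass, bulrush and ducksalad were co-sown in alluvial soil flooded to 4 cm and grown in a greenhouse at 25 to 30° C. At the 1- or 2-leaf stage, water-diluted emulsifiable concentrates went onto the water surface at set doses (g/a). Herbicidal effect was scored three weeks later on a graded scale.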

bulrush [5] = assay: as above; settings: treatment during the vegetation period under submerged conditions; dose 2.52 g/a
How it was run: as §2

barnyardgrass [6] = assay: as above; settings: treatment during the vegetation period under submerged conditions; dose 2.52 g/a
How it was run: as §2

giant foxtail [7] = assay: Test Example 3: herbicidal effects in soil treatment; settings: dose 3.2 g/a
How it was run: (§3)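 Seeds were sown in sterilized diluvial soil and covered with about 1.5 cm of soil. Compounds, formulated as emulsifiable concentrates and diluted with water, were sprayed evenly over the soil surface at set doses in g/a. Herbicidal effect was scored on a rating scale three weeks later.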

common chickweed [8] = assay: as above; settings: dose 3.2 g/a
How it was run: as §3

wild oat [9] = assay: as above; settings: dose 3.2 g/a
How it was run: as §3

common ragweed [10] = assay: as above; settings: dose 3.2 g/a
How it was run: as §3

beadstraw [11] = assay: as above; settings: dose 3.2 g/a
How it was run: as §3

large crabgrass [12] = assay: as above; settings: dose 3.2 g/a
How it was run: as §3

redroot pigweed [13] = assay: as above; settings: dose 3.2 g/a
How it was run: as §3

barnyardgrass [14] = assay: as above; settings: dose 3.2 g/a
How it was run: as §3

posumbu knotweed [15] = assay: as above; settings: dose 3.2 g/a
How it was run: as §3

water foxtail [16] = assay: as above; settings: dose 3.2 g/a
How it was run: as §3

common lambsquater [17] = assay: as above; settings: dose 3.2 g/a
How it was run: as §3

Italian ryegrass [18] = assay: as above; settings: dose 3.2 g/a
How it was run: as §3

velvetleaf [19] = assay: as above; settings: dose 3.2 g/a
How it was run: as §3

giant foxtail [20] = assay: Test Example 4: herbicidal effect in foliage treatment; settings: dose 3.2 g/a
How it was run: (§4)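 Seeds were spot-sown in boxes of sterilized diluvial soil and raised in a greenhouse (25 to 30° C) for 14 days before a single foliar application. Compounds were applied as emulsifiable concentrates diluted with water, at predetermined doses in g/a. Injury was graded three weeks post-spray.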

common chickweed [21] = assay: as above; settings: dose 3.2 g/a
How it was run: as §4

wild oat [22] = assay: as above; settings: dose 3.2 g/a
How it was run: as §4

common ragweed [23] = assay: as above; settings: dose 3.2 g/a
How it was run: as §4

beadstraw [24] = assay: as above; settings: dose 3.2 g/a
How it was run: as §4

large crabgrass [25] = assay: as above; settings: dose 3.2 g/a
How it was run: as §4

redroot pigweed [26] = assay: as above; settings: dose 3.2 g/a
How it was run: as §4

barnyardgrass [27] = assay: as above; settings: dose 3.2 g/a
How it was run: as §4

posumbu knotweed [28] = assay: as above; settings: dose 3.2 g/a
How it was run: as §4

water foxtail [29] = assay: as above; settings: dose 3.2 g/a
How it was run: as §4

common lambsquater [30] = assay: as above; settings: dose 3.2 g/a
How it was run: as §4

Italian ryegrass [31] = assay: as above; settings: dose 3.2 g/a
How it was run: as §4

velvetleaf [32] = assay: as above; settings: dose 3.2 g/a
How it was run: as §4

[33] = three weeks after the application

Question: What does the source list for `CCOC(=O)N(c1ccccc1CN1COCN(CC)C1=O)S(=O)(=O)C(F)(F)F` [IV-6]?
Answer: C: ducksalad, herbicidal effect (evaluation scale 0-5) (ducksalad [1]): 5 (mortality of 90% or above (nearly complete death)); B: bulrush, herbicidal effect (evaluation scale 0-5) (bulrush [2]): 5 (mortality of 90% or above (nearly complete death)); A: barnyardgrass, herbicidal effect (evaluation scale 0-5) (barnyardgrass [3]): 5 (mortality of 90% or above (nearly complete death)); a: transplanted rice, effect on crop (evaluation scale 0-5) (transplanted rice): 0 (mortality of less than 5% (almost ineffective)); C: ducksalad, herbicidal effect (evaluation scale 0-5) (ducksalad [4]): 5 (mortality of 90% or above (nearly complete death)); B: bulrush, herbicidal effect (evaluation scale 0-5) (bulrush [5]): 5 (mortality of 90% or above (nearly complete death)); A: barnyardgrass, herbicidal effect (evaluation scale 0-5) (barnyardgrass [6]): 5 (mortality of 90% or above (nearly complete death)); herbicidal effect, E: giant foxtail (giant foxtail [7]): 5 (mortality of 90% or above (nearly complete death)); herbicidal effect, N: common chickweed (common chickweed [8]): 4 (mortality of at least 70% and less than 90%); herbicidal effect, F: wild oat (wild oat [9]): 0 (mortality of less than 5% (almost ineffective)); herbicidal effect, J: common ragweed (common ragweed [10]): 0 (mortality of less than 5% (almost ineffective)); herbicidal effect, O: beadstraw (beadstraw [11]): 4 (mortality of at least 70% and less than 90%); herbicidal effect, D: large crabgrass (large crabgrass [12]): 5 (mortality of 90% or above (nearly complete death)); herbicidal effect, K: redroot pigweed (redroot pigweed [13]): 1 (mortality of at least 5% and less than 20%); herbicidal effect, A: barnyardgrass (barnyardgrass [14]): 5 (mortality of 90% or above (nearly complete death)); herbicidal effect, M: posumbu knotweed (posumbu knotweed [15]): 0 (mortality of less than 5% (almost ineffective)); herbicidal effect, G: water foxtail (water foxtail [16]): 5 (mortality of 90% or above (nearly complete death)); herbicidal effect, L: common lambsquater (common lambsquater [17]): 0 (mortality of less than 5% (almost ineffective)); herbicidal effect, H: Italian ryegrass (Italian ryegrass [18]): 0 (mortality of less than 5% (almost ineffective)); herbicidal effect, I: velvetleaf (velvetleaf [19]): 5 (mortality of 90% or above (nearly complete death)); E: giant foxtail, herbicidal effect (giant foxtail [20]; [33]): 4 (mortality of at least 70% and less than 90%); N: common chickweed, herbicidal effect (common chickweed [21]; [33]): 4 (mortality of at least 70% and less than 90%); F: wild oat, herbicidal effect (wild oat [22]; [33]): 0 (mortality of less than 5% (almost ineffective)); J: common ragweed, herbicidal effect (common ragweed [23]; [33]): 3 (mortality of at least 40% and less than 70%); O: beadstraw, herbicidal effect (beadstraw [24]; [33]): 4 (mortality of at least 70% and less than 90%); D: large crabgrass, herbicidal effect (large crabgrass [25]; [33]): 4 (mortality of at least 70% and less than 90%); K: redroot pigweed, herbicidal effect (redroot pigweed [26]; [33]): 0 (mortality of less than 5% (almost ineffective)); A: barnyardgrass, herbicidal effect (barnyardgrass [27]; [33]): 4 (mortality of at least 70% and less than 90%); M: posumbu knotweed, herbicidal effect (posumbu knotweed [28]; [33]): 0 (mortality of less than 5% (almost ineffective)); G: water foxtail, herbicidal effect (water foxtail [29]; [33]): 5 (mortality of 90% or above (nearly complete death)); L: common lambsquater, herbicidal effect (common lambsquater [30]; [33]): 3 (mortality of at least 40% and less than 70%); H: Italian ryegrass, herbicidal effect (Italian ryegrass [31]; [33]): 2 (mortality of at least 20% and less than 40%); I: velvetleaf, herbicidal effect (velvetleaf [32]; [33]): 5 (mortality of 90% or above (nearly complete death))

Question: What does the source list for `CC(C)COC(=O)N(c1ccccc1CN1CC(C)OCC1=O)S(=O)(=O)C(F)(F)F` (stereo not drawn) [Compound I-9]?
Answer: C: ducksalad, herbicidal effect (evaluation scale 0-5) (ducksalad [1]): 5 (mortality of 90% or above (nearly complete death)); B: bulrush, herbicidal effect (evaluation scale 0-5) (bulrush [2]): 5 (mortality of 90% or above (nearly complete death)); A: barnyardgrass, herbicidal effect (evaluation scale 0-5) (barnyardgrass [3]): 5 (mortality of 90% or above (nearly complete death)); a: transplanted rice, effect on crop (evaluation scale 0-5) (transplanted rice): 0 (mortality of less than 5% (almost ineffective)); C: ducksalad, herbicidal effect (evaluation scale 0-5) (ducksalad [4]): 5 (mortality of 90% or above (nearly complete death)); B: bulrush, herbicidal effect (evaluation scale 0-5) (bulrush [5]): 5 (mortality of 90% or above (nearly complete death)); A: barnyardgrass, herbicidal effect (evaluation scale 0-5) (barnyardgrass [6]): 5 (mortality of 90% or above (nearly complete death)); E: giant foxtail, herbicidal effect (evaluation scale 0-5) (giant foxtail [7]): 4 (mortality of at least 70% and less than 90%); N: common chickweed, herbicidal effect (evaluation scale 0-5) (common chickweed [8]): 5 (mortality of 90% or above (nearly complete death)); F: wild oat, herbicidal effect (evaluation scale 0-5) (wild oat [9]): 3 (mortality of at least 40% and less than 70%); J: common ragweed, herbicidal effect (evaluation scale 0-5) (common ragweed [10]): 5 (mortality of 90% or above (nearly complete death)); O: beadstraw, herbicidal effect (evaluation scale 0-5) (beadstraw [11]): 4 (mortality of at least 70% and less than 90%); D: large crabgrass, herbicidal effect (evaluation scale 0-5) (large crabgrass [12]): 5 (mortality of 90% or above (nearly complete death)); K: redroot pigweed, herbicidal effect (evaluation scale 0-5) (redroot pigweed [13]): 4 (mortality of at least 70% and less than 90%); A: barnyardgrass, herbicidal effect (evaluation scale 0-5) (barnyardgrass [14]): 5 (mortality of 90% or above (nearly complete death)); M: posumbu knotweed, herbicidal effect (evaluation scale 0-5) (posumbu knotweed [15]): 0 (mortality of less than 5% (almost ineffective)); G: water foxtail, herbicidal effect (evaluation scale 0-5) (water foxtail [16]): 5 (mortality of 90% or above (nearly complete death)); L: common lambsquater, herbicidal effect (evaluation scale 0-5) (common lambsquater [17]): 0 (mortality of less than 5% (almost ineffective)); H: Italian ryegrass, herbicidal effect (evaluation scale 0-5) (Italian ryegrass [18]): 3 (mortality of at least 40% and less than 70%); I: velvetleaf, herbicidal effect (evaluation scale 0-5) (velvetleaf [19]): 5 (mortality of 90% or above (nearly complete death)); E: giant foxtail, herbicidal effect (giant foxtail [20]; three weeks after application): 3 (mortality of at least 40% and less than 70%); N: common chickweed, herbicidal effect (common chickweed [21]; three weeks after application): 3 (mortality of at least 40% and less than 70%); F: wild oat, herbicidal effect (wild oat [22]; three weeks after application): 0 (mortality of less than 5% (almost ineffective)); J: common ragweed, herbicidal effect (common ragweed [23]; three weeks after application): 4 (mortality of at least 70% and less than 90%); O: beadstraw, herbicidal effect (beadstraw [24]; three weeks after application): 4 (mortality of at least 70% and less than 90%); D: large crabgrass, herbicidal effect (large crabgrass [25]; three weeks after application): 5 (mortality of 90% or above (nearly complete death)); K: redroot pigweed, herbicidal effect (redroot pigweed [26]; three weeks after application): 2 (mortality of at least 20% and less than 40%); A: barnyardgrass, herbicidal effect (barnyardgrass [27]; three weeks after application): 5 (mortality of 90% or above (nearly complete death)); M: posumbu knotweed, herbicidal effect (posumbu knotweed [28]; three weeks after application): 0 (mortality of less than 5% (almost ineffective)); G: water foxtail, herbicidal effect (water foxtail [29]; three weeks after application): 5 (mortality of 90% or above (nearly complete death)); L: common lambsquater, herbicidal effect (common lambsquater [30]; three weeks after application): 0 (mortality of less than 5% (almost ineffective)); H: Italian ryegrass, herbicidal effect (Italian ryegrass [31]; three weeks after application): 3 (mortality of at least 40% and less than 70%); I: velvetleaf, herbicidal effect (velvetleaf [32]; three weeks after application): 5 (mortality of 90% or above (nearly complete death))
